Where two headings read alike, the source gives them in different places.
What was measured:
[1] = intraperitoneal acute 50 percent lethal dose; conditions: mouse, in vivo, ip
[2] = system: reserpine-induced depression; assay: protection from reserpine-induced depression (ptosis) in mice; format: in vivo; conditions: for ED50: Mus musculus, 0.75 h; for antidepressant activity (in words): mean effective dose not calculated for the compounds of b45-b48
Description: Separate groups of mice of the same origin and past history (5 mice per group) were administered 2-(2-(2-chlorophenyl)hydrazino)-4,5-dihydro-1H-imidazole monohydrochloride in an aqueous carrier. Different groups were administered the compound by intraperitoneal injection at various dosage rates. Thirty minutes after the administration of the test compound, the mice were administered reserpine at a dosage rate of 2.5 milligrams per kilogram by intraperitoneal injection. Separate groups of similar mice were similarly administered 2.5 milligrams of reserpine per kilogram 30 minutes after administration of various dosages of the known antidepressant. The mice were then observed for 45 minutes for symptoms of reserpine-induced depression.
Protection from reserpine-induced depression is indicated by the absence of the characteristic ptosis.
The results were employed to calculate the dose effective to protect 50 percent of the mice (ED50) by classical, statistical procedures.
The procedure of Example 1 was repeated using oral administration of 2-(2-(2-chlorophenyl)hydrazino)-4,5-dihydro-1H-imidazole monohydrochloride instead of intraperitoneal injection.
Using the general procedure outlined above, the ED50 's were calculated for other compounds showing antidepressant properties. These compounds are represented by the general formula [drawing 2]

[3] = ip, Table I, intraperitoneal, read-out: Intraperitoneal ED50
[4] = Table I, oral, read-out: ORAL ED50

Structure (SMILES) | LD50 [1] | ED50 ([2]; oral administration, reserpine 2.5 mg/kg i.p., read-out: oral ED50) | ED50 ([2]; ip, intraperitoneal, 30 minutes before reserpine 2.5 mg/kg i.p., read-out: ED50 (dose effective to protect 50 percent of the mice)) | antidepressant activity (in words) [2] | ED50 [2, 3] | ED50 [2, 4]
Cl.Clc1ccccc1NNC1=NCCN1 [Example 1, 2-(2-(2-chlorophenyl)hydrazino)-4,5-dihydro-1H-imidazole monohydrochloride] | 167 mg/kg | 2 mg/kg | < 10 mg/kg | particularly active as antidepressants | – | –
CN1CCN=C1NNc1ccc(Cl)cc1Cl [Example 6] | – | – | – | – | 43 mg/kg | –
Fc1ccccc1NNC1=NCCN1.I [Example 3, 2-((2-fluorophenyl)hydrazino)-4,5-dihydro-1H-imidazole monohydriodide] | – | – | – | particularly active as antidepressants | < 10 mg/kg | 1 mg/kg
Fc1ccccc1NNC1=NCCCN1 [Example 5] | – | – | – | – | 37 mg/kg | 43 mg/kg
CN1CCN=C1NNc1ccccc1F [Example 4] | – | – | – | – | 37 mg/kg | 27 mg/kg

Reference: patent publication US4117146A, “Method for treating depression and anxiety using phenyl hydrazo compounds” (The Dow Chemical Company, priority 1977, dated 1978)
